In patent publication US9682982B2, “Inhibitors of adapter associated kinase 1, compositions comprising them, and methods of their use” (Lexicon Pharmaceuticals, Inc., priority 2014, dated 2017):

Columns and labels:
[1] = target: T1, AAK1 (full length human, NCBI accession no. NP_055726.2) (Homo sapiens, UniProt Q2M2I8); assay: P81 Filter Plate Assay; format: biochemical; parameters: NP_055726.2; details: 0.2 nM AAK1 and 2 μM ATP in 2× mixes, 33P-ATP, one hour at RT; read-out: P81 assay result (inhibition of AAK1 phosphorylation of Mu2)
T1 sequence (Q2M2I8 1-863 isoform Q2M2I8-2): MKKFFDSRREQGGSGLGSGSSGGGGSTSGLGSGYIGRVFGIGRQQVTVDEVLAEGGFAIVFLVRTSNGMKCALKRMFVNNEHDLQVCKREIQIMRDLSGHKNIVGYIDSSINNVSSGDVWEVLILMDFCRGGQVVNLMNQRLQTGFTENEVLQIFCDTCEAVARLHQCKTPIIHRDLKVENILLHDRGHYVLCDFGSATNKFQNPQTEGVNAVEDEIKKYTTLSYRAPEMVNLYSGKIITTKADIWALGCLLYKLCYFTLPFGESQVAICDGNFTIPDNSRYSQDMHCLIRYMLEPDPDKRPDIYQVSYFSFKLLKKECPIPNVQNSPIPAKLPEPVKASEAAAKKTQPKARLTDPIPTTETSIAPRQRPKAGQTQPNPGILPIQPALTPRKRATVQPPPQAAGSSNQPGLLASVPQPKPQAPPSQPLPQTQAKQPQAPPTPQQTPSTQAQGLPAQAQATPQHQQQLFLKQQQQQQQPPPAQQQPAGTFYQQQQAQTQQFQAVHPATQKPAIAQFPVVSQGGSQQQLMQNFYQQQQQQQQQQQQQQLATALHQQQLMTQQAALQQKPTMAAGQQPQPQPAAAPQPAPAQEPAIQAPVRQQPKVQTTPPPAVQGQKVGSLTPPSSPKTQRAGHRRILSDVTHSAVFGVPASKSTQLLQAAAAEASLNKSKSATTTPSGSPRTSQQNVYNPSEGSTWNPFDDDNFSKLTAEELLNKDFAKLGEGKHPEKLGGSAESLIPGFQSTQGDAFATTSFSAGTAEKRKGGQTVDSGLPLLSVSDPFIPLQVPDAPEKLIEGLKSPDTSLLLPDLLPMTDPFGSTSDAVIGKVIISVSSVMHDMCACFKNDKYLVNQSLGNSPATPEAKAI
Protocol: Compounds were serially diluted into a Labcyte LDV plate (Labcyte, cat #LP-0200) using a Mutiprobe (PerkinElmer) and Biomek FX (Beckman Coulter) so that the highest compound concentration was at 96 μM. Compounds were then pinged (75 nL per well) into a Greiner 384-well reaction plate (Greiner, #781076) using an ECHO 550 Liquid Handler (Labcyte). A total of 12 μl reaction buffer (IMAP buffer containing Tween and DTT, from Molecular Devices) was then added to each well of columns 1 and 13 for the negative controls and 12 μl of 2×AAK1 (0.2 nM full-length human protein, NCBI accession no. NP_055726.2) was added to the remaining wells. Enzyme was then pre-incubated with compound for 10 minutes at RT. Reactions were initiated upon Minitrak (PerkinElmer) addition of 12 μl substrate mix containing 2× Mu2 (0.2 μM, full length human protein), 2× cold ATP (2 μM), and 1.3 μCi of hot ^33P-ATP. Reactions proceeded for one hour at RT. Meanwhile, Millipore 384-well P81 filter plates (Millipore, catalog #MZPHNOW10) were placed on a plate washer (Zoom ZW, from Titertek) and pre-wet with 50 μl 1% phosphoric acid. […] The bottom of each filter plate was sealed followed by addition of 20 μl Microscint 40 to each well, sealing the top of the plates with Flashplate cover, and then waiting one hour until reading on the TopCount (PerkinElmer).

[2] = target: T1, AAK1 (full length human, NCBI accession no. NP_055726.2); assay: HEK281 Cell-Based Assay (phospho-mu2 Western blot in HEK293F cells transfected with AAK1 and AP2M1); parameters: HA; expressed in transfected cells; host or cells: HEK293F; details: 3 hours incubation, read-out: HEK281 cell-based assay IC50 (inhibition of mu2 phosphorylation)
Protocol: HEK293F cells were cultured in media containing DMEM (Gibco, cat. #11965), 10% FBS (SAFC Biosciences, cat. #12103C), 1×GPS (glutamine, penicillin and streptomycin). On day one, cells were plated on a 10 cm dish so that they are ˜80% confluent at time of transfection. Roughly 12 million cells were in a 10 cm dish at time of transfection. On day two, each dish was transfected with 48 ug DNA and 144 ul Lipofectamine 2000 (Invitrogen, cat. #11668-019). The DNA was comprised of a mixture (per 10 cm dish) containing 3 ug AAK1/HA/pIRES (full length human, NCBI accession no. NP_055726.2), 45 μg Flag/AP2MI/pcDNA (full length human), and 1.5 ml OPTI-MEM. The Lipofectamine 2000 is made up of a mixture (per 10 cm dish) containing 144 μl Lipofectamine 2000 and 1.5 ml OPTI-MEM. Each mixture was transferred to individual 15 ml tubes and incubated at RT for 5 minutes, and then the two mixes were combined and incubated at RT for 20 minutes. Growth media was then aspirated from each 10 cm plate and replaced with 10 ml of DMEM+10% FBS (no GPS). Finally, 3 ml DNA/Lipofectamine mix was added to each 10 cm dish and mix gently followed by incubate of plate overnight at 37° C. and 5% CO2.
On day three, compounds were diluted in 100% DMSO at 1000× final concentration, followed by 3-fold serial dilutions for a total of 5 concentrations tested. Four compounds were tested per 10 cm dish. […]

[3] = system: tactile allodynia after spinal nerve ligation in mice; assay: Mouse Chung Assay (spinal nerve ligation, von Frey tactile allodynia); format: in vivo; details: P<0.0001 in RM ANOVA, FIG. 6
Text: The compound 3-methyloxetan-3-yl-4-(3-(2-methoxypyridin-3-yl)pyrazolo[1,5-a]pyrimidin-5-yl)piperazine-1-carboxylate was studied in the Chung assay. See Chaplan S R, Bach F W, Pogrel J W, Chung J M, Yaksh T L., Quantitative assessment of tactile allodynia in the rat paw, J Neurosci Methods 1994; 53:55-63; Chung J M, Kim H K, Chung K., Segmental spinal nerve ligation model of neuropathic pain, Methods Mol Med. 2004; 99:35-45.
Wild-type hybrid (C57BL/6J-Tyr^c-Brd×129S5/SvEvBrd) male mice were between 5-7 weeks of age at the time of spinal nerve ligation by the conventional Chung protocol. Spinal nerve ligation was carried out according to the procedure devised by Kim and Chung with modifications. Briefly, mice were anesthetized with isoflurane (2% at the oxygen flow rate of […]). A skin incision (1 cm) was made 1 mm to the left of the dorsal midline, using the level of iliac crests as the mid point of the incision. […] In an initial experiment using hybrid mice, the presumptive locations of spinal nerve L5 and L6 were determined by using the sacroiliac junction as the landmark to locate L6, as previously described in SNL models in rats and mice. […] Mice were individually housed after the procedure and were monitored until complete recovery from anesthesia. […]

[4] = system: formalin-induced nociception in male C57 mice; assay: Formalin Assay (paw flinching); format: in vivo, mouse; details: male C57 mice, 1, 3, 10 and 30 mpk, given 30 minutes prior to formalin; one-way ANOVA P<0.01 dose effect; FIG. 4 and 5
Protocol: Mice were tested for nociception with Automatic Nociception Analyzers (purchased from the Ozaki lab at University of California, San Diego). A metal band was placed around the left hind paw of each mouse with superglue 30 minutes prior to testing. After the 30-minute acclimation period, 20 μl of 5% formalin was subcutaneously injected in the dorsal surface of the left hind paw. Mice were individually housed in cylindrical chambers for 45 minutes. Fresh 5% formalin solution was prepared by diluting formaldehyde (Formalde-fresh 20%, Fisher Scientific, Fair Lawn, N.J.) with distilled water. Investigatory compounds were administered 30 minutes prior to formalin injection.
A computer software recorded flinches per minute, total flinches for Phase I (acute phase=first 8 minutes), and total flinches for Phase II (tonic phase between 20-40 minutes) through an electromagnetic field. See Yaksh T L, Ozaki G, McCumber D, Rathbun M, Svensson C, Malkmus S, Yaksh M C. An automated flinch detecting system for use in the formalin nociceptive bioassay. J Appl Physiol., 2001; 90:2386-402.

[5] = system: PC12 cells; details: Kuai et al. 2011; cited from earlier work
[6] = target: AAK1 (Homo sapiens, UniProt Q2M2I8); details: cited from earlier work
Sequence of AAK1 (Q2M2I8 whole entry, species assumed): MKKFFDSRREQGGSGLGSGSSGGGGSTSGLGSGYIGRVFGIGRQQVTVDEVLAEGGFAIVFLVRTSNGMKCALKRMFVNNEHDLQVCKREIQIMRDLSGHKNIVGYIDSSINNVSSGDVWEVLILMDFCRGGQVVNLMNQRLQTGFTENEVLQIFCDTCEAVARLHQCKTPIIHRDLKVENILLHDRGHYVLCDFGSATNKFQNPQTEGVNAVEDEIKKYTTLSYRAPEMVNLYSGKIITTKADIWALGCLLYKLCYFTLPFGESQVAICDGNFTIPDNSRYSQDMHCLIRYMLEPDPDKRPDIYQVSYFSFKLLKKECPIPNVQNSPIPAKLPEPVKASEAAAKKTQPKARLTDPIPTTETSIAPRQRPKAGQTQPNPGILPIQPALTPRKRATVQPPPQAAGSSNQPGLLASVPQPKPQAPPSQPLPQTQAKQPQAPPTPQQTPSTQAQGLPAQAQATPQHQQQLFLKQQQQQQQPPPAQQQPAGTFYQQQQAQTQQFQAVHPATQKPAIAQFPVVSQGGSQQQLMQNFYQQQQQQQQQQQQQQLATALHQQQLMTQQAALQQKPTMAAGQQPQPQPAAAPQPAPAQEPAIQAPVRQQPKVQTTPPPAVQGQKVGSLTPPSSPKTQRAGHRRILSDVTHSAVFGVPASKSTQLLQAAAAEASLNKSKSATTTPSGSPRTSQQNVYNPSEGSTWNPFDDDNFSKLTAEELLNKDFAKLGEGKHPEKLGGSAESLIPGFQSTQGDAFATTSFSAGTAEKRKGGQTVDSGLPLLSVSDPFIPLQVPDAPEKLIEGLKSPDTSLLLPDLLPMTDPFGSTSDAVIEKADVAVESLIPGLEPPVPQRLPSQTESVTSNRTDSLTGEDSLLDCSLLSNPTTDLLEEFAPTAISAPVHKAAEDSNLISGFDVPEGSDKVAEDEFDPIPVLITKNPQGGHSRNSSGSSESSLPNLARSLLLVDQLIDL

With `COc1ncccc1-c1cnn2ccc(N3CCN(C(=O)OC4(C)COC4)CC3)nc12` [3-methyloxetan-3-yl-4-(3-(2-methoxypyridin-3-yl)pyrazolo[1,5-a]pyrimidin-5-yl)piperazine-1-carboxylate] the IC50 [1] was 0.9 nM, the IC50 [2] was 4.7 nM and the “Effect in the Chung assay (von Frey 50% withdraw threshold)” value [3] was “dose-dependent, significantly significant effect”. The “Formalin phase 2 (tonic phase) flinches versus vehicle” value [4] was “dramatic effect”.

In the case of `COC(=O)[C@@]1(O)C[C@H]2O[C@]1(C)n1c3ccccc3c3c4c(c5c6ccccc6n2c5c31)C(=O)NC4` [K252a], the “Effect on Neuregulin-1 induced neurite outgrowth” value [5] is listed as “potentiation of Neuregulin-1 induced neurite outgrowth” and the “Effect on AAK1 kinase activity” value [6] is listed as “inhibits AAK1 kinase activity”.
